Source: patent US10618900B2, “5-aromatic alkynyl substituted benzamide compound and preparation method, pharmaceutical composition, and use thereof” (SHANGHAI INSTITUTE OF MATERIA MEDICA, CHINESE ACADEMY OF …, priority 2015, dated 2020)
Read-outs that look alike come from different tables or passages of the source.

Experiments:
mice [1] = assay: Mouse tail suspension experiment; assay type: in vivo; conditions: 20 mg/kg dose, within 6 min, FIG. 1
Text: Experimental principle: Tail Suspension Test (TST) is a classic method which can quickly evaluate the efficacy of antidepressant drugs, excitement drugs, and sedative drugs. The principle is to use the status that the mouse give up struggle and enter the unique depression status after the tail was suspended and the attempt to escape was failed.
Experimental method: 20-24 g male mice were selected and the site at 2 cm part from the end of the tail was attached to a horizontal stick, so that the animal entered inverted state, and it's head was about 5 cm from the table, and boards were hung on both sides to separate the animal's sight. The immobility time of the administration group and the control group within 6 min were compared.

[2] = Pharmacokinetic experiment in rats; assay type: in vivo; conditions: rat; for bioavailability: gavage 20 mg/kg vs intravenous 10 mg/kg, read-out: F (absolute bioavailability)
Procedure: Six healthy rats weighing 150-200 g were randomly divided into […] (n=3). The rats were given 10 mL/kg ZD043 by gavage and intravenous injection. The dose of gavage was 20 mg/kg, and the dose of intravenous administration was 10 mg/kg. The drug was formulated in DMSO/Tween 80/saline (5:5:90, v/v/v). The rats were fasted for 12 h before testing, and drinked water ad libitum. 2 h after administration, all rats ate together.
Gavage administration: 0, 0.25, 0.5, 1.0, 2.0, 4.0, 6.0, 8.0 and 24 h after administration;
Intravenous administration: 0, 5 min, 0.25, 0.5, 1.0, 2.0, 4.0, 6.0, 8.0 and 24 h after administration;
0.3 mL of blood was collected at the above time points from the rat eye vein venous plexus, placed in heparinized test tube and centrifugated at 11000 rpm for 5 min. Plasma was separated and the sample was frozed in −20° C. refrigerator.

mice [3] = assay: Head twitches test (5-HTP induced); assay type: in vivo; conditions: 20 mg/kg, intraperitoneal, in 6 min, FIG. 2
Text: Experimental principle: Model Head Thrust Test (HTT) is first raised by Corne et al. in 1963, head twitches syndrome caused by 5-HT receptor excitement may be mediated through the 5-HT2 receptor. The head twitches behavior induced by 5-HTP in mice is more sensitive to antidepressants with different action mechanisms, such as citalopram, fluvoxamine and other 5-HT retake inhibitors, desipramine, maprotiline, nomifensine and other NA retake inhibitors and imipramine acting on both 5-HT and NA system.
Experimental method: 20-24 g male mice were selected. 3 h before the test, 100 mg/kg pargyline was intraperitoneal injected and then intraperitoneal injected with test drugs or saline. 5-HTP (5 mg/kg, ip) was injected 30 min later. After 10 min, the observation was started and the number of mice head twitches in 6 min was recorded. The numbers of the head twitches of experimental group and the saline control group were compared.

ICR mice = assay: Mouse forced swimming experiment; assay type: in vivo; conditions: later 4 min of 6 min
Procedure: Experimental principle: The principle of Mouse Forced Swimming Test (FST) is to allow the mouse to swim in a limited space from which it can not escape, thus inducing animal to non-movement state which reflects the animal's desperate behavior.
Experimental animals: ICR mice, 20-28 g, both male and female
Sample treatment: The test compounds were ground with 1% CMC (sodium carboxymethyl cellulose) aqueous solution to prepare a homogeneous solution. In vivo dose was 5 mg/kg, 10 mg/kg and 20 mg/kg, the compound was oral administered at 0.1 ml/10 g volume/body weight. Positive control drugs (amitriptyline and fluoxetine) were dissolved with 0.9% saline, in vivo dose was 10 mg/kg, administered by intraperitoneal injection at 0.1 ml/10 g volume/body weight. (Note: the mice were fasted for 8 h and drinked water ad libitum before the compound was given.)
Experimental Methods: mice were grouped randomly. […] On the second day of the test, the mice were orally administered the compound. After 1 hour (0.5 hours after intraperitoneal injection), the mice were then put in water to record the immobility time in the later 4 min of 6 min.

mGluR1 = mGluR1 (Homo sapiens (Human), UniProt Q13255); assay: mGluR5/1 selectivity test, HEK293/mGluR1 cell line, Fluo-8 calcium; assay type: cell-based
Text: Experimental material: HEK293/mGluR5 cell line, HEK293/mGluR1 cell line, Fluo-8 calcium ion fluorescent dye, positive control JNJ16259685

Fmr1 knockout mice = assay: Audiogenic epilepsy induced animal model of Fmr1 knockout mice; assay type: in vivo; conditions: for Seizure level: level 0-4
Procedure: In this study, we used audiogenic epilepsy induced animal model of Fmr1 knockout mice, and evaluated the efficacy of compound ZD043 with epilepsy seizure latency, seizure level and epileptic mortality as evaluation indexes.
Species, strain: Fmr1 knockout mice, FVB.129P2-Pde6b^+ Tyr^c-ch Fmr1^tm1Cgr/J (strain number 004624)
Test reagent and preparation method: before the experiment, 2.0 mg ZD043 was weighed in 2 mL centrifuge tube, 10 uL DMSO was taken with a precise pipette to dissolve ZD043 powder, then 10 uL Tween80 was added, mixed and 980 uL of saline was added, well mixed to form a suspension liquid.
Methods: The mice were weighed on the day of the experiment. The mice were injected intraperitoneally into 19 to 22 days Fmr1 knockout mice respectively according to the experimental design group 30 minutes before the convulsive test. The mice to be tested were transferred to a sonic seizure test laboratory, placed in a transparent organic glass bucket, and a high-decibel siren loudspeaker was fixed on the top of organic glass bucket. Before delivering the stimulate sound, the mouse was allowed to explore freely for 1 minute, then turn on the loudspeaker, video recorded for the whole process by surveillance system, sound stimulated (≥120 dB) for 3 minutes, or stop after the animal was died, and the experiment was ended.
Test method: After the end of the experiment, the epilepsy seizure latency (2 grade appearance was regarded as seizures, and the longest latency period was recorded as 300 seconds if no epilepsy was observed) and seizure level (Level 0: no epileptic response; Level 1: rapid running and continuous jump; Level 2: paroxysmal epilepsy; Level 3: tonic epilepsy; Level 4: death) were analyzed according to video record.
Data processing: calculate the mean and standard error of the epilepsy seizure latency and seizure level as well as the percentage of epilepsy death of each group.

Chain of mGluR1 (Q13255 19-1194): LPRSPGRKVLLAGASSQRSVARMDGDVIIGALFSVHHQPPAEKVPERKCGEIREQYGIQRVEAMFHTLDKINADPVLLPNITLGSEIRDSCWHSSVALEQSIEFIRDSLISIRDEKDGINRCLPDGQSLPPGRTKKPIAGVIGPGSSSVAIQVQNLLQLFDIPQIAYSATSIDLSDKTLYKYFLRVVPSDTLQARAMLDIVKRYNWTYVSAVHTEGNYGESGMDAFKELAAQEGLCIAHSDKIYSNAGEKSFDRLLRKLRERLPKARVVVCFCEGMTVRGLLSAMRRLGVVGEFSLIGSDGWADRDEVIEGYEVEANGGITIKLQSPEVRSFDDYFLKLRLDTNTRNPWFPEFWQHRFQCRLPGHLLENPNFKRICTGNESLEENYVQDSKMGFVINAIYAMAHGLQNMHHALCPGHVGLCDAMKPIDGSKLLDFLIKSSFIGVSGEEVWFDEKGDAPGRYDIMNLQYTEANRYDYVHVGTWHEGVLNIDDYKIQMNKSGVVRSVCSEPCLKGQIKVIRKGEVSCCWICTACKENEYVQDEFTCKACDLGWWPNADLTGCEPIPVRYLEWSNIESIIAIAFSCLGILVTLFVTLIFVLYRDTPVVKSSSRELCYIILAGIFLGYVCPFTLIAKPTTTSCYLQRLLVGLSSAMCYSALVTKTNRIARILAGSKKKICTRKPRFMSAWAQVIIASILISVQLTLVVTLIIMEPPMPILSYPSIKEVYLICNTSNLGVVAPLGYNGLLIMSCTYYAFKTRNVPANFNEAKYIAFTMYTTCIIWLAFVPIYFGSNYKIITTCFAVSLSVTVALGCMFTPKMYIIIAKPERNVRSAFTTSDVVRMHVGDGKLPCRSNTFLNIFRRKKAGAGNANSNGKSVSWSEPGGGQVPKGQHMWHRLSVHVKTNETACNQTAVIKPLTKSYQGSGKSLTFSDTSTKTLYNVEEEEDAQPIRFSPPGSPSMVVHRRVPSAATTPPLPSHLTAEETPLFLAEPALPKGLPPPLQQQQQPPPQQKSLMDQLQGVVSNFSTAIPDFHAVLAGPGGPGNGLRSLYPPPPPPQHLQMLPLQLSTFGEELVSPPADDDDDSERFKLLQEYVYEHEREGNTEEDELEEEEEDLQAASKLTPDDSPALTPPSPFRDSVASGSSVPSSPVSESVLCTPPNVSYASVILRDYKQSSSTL

Q: For Cc1nc(C#Cc2ccc(F)c(C(=O)Nc3cccnc3)c2)cs1 [ZD043], which “immobility time in the mouse tail suspension test” value (mice [1]) is on record?
A: The value was “significantly reduced”.

Q: And the AUC(0-t) ([2]; plasma, intravenous, vein 10 mg/kg, read-out: AUC0-t)?
A: Its AUC(0-t) is 66400 ng·h/mL.

Q: What about the AUC(0-inf) ([2]; plasma, iv, vein 10 mg/kg) of the same molecule?
A: The AUC(0-inf) was 66400 ng·h/mL.

Q: What about the Cmax ([2]; plasma, iv, vein 10 mg/kg) of the same molecule?
A: Its Cmax is 75400 ng/mL.

Q: What about the MRT ([2]; plasma, iv, vein 10 mg/kg) of the same molecule?
A: The MRT was 37.2 min.

Q: What about the Tmax ([2]; plasma, iv, vein 10 mg/kg) of the same molecule?
A: Its Tmax is 4.98 min.

Q: What about the AUC(0-t) ([2]; plasma, iv, vein 10 mg/kg, read-out: AUC0-t) of the same molecule?
A: Its AUC(0-t) is 66400 ng·h/mL.

Q: And the bioavailability ([2]; plasma, oral)?
A: Its bioavailability is 31.6%.

Q: What about the AUC(0-inf) ([2]; plasma, po, gavage 20 mg/kg) of the same molecule?
A: The AUC(0-inf) was 10500 ng·h/mL.

Q: And the Cmax ([2]; plasma, po, gavage 20 mg/kg)?
A: The Cmax was 7120 ng/mL.

Q: What about the MRT ([2]; plasma, po, gavage 20 mg/kg) of the same molecule?
A: The MRT was 63.6 min.

Q: What about the Tmax ([2]; plasma, po, gavage 20 mg/kg) of the same molecule?
A: The Tmax was 15 min.

Q: And the bioavailability ([2]; plasma, po)?
A: Its bioavailability is 31.6%.

Q: What about the AUC(0-t) ([2]; plasma, po, gavage 20 mg/kg, read-out: AUC0-t) of the same molecule?
A: The AUC(0-t) was 10500 ng·h/mL.

Q: And the AUC(0-t) ([2]; gavage 20 mg/kg)?
A: Its AUC(0-t) is 10491.2 ng·h/mL.

Q: What about the t1/2 ([2]; gavage 20 mg/kg) of the same molecule?
A: Its t1/2 is 78 min.

Q: What about the half-life ([2]; plasma, iv, 10 mg/kg, vein 10 mg/kg) of the same molecule?
A: The half-life was 25.8 min.

Q: And the half-life ([2]; plasma, po, 20 mg/kg, gavage 20 mg/kg)?
A: The half-life was 78.1 min.

Q: And the “number of head twitches” value (mice [3])?
A: Its value is “increase”.

Q: What about the “immobility time (%) Mean ± SEM” value (ICR mice; 5 mg/kg oral) of the same molecule?
A: The value was “reduced”.

Q: What about the “immobility time (%) Mean ± SEM” value (ICR mice; 5 mg/kg oral, listed as D043) of the same molecule?
A: Its value is 74.97 ± 18.79%.

Q: What about the “immobility time (%) Mean ± SEM” value (ICR mice; 10 mg/kg oral) of the same molecule?
A: The value was “reduced”.

Q: What about the “immobility time (%) Mean ± SEM” value (ICR mice; 10 mg/kg oral, listed as D043) of the same molecule?
A: Its value is 66.01 ± 21.08%.

Q: And the “immobility time (%) Mean ± SEM” value (ICR mice; 20 mg/kg oral)?
A: Its value is “reduced”.

Q: And the “immobility time (%) Mean ± SEM” value (ICR mice; 20 mg/kg oral, listed as D043)?
A: Its value is 46.50 ± 13.03%.

Q: And the IC50 (mGluR1; HEK293/mGluR1 cell line)?
A: The IC50 was > 100 µM.

Q: And the mGluR5/mGluR1 (mGluR1; selectivity ratio of IC50 values)?
A: Its mGluR5/mGluR1 is >17854.

Q: And the “Mortality (%)” value (Fmr1 knockout mice; 10 mg/kg intraperitoneal)?
A: Its value is 25%.

Q: And the “Latency” value (Fmr1 knockout mice; 10 mg/kg intraperitoneal, single injection, 30 min before test)?
A: The value was 133.9 s.

Q: What about the Seizure level (Fmr1 knockout mice; 10 mg/kg intraperitoneal) of the same molecule?
A: Its Seizure level is 1.4.

Q: And the “Latency” value (Fmr1 knockout mice; 20 mg/kg intraperitoneal)?
A: Its value is 123.1 s.

Q: What about the “Mortality (%)” value (Fmr1 knockout mice; 20 mg/kg intraperitoneal) of the same molecule?
A: Its value is 12.5%.

Q: And the Seizure level (Fmr1 knockout mice; 20 mg/kg intraperitoneal)?
A: The Seizure level was 1.5.

Q: And the “Latency” value (Fmr1 knockout mice; 30 mg/kg intraperitoneal)?
A: The value was 180 s.

Q: And the “Mortality (%)” value (Fmr1 knockout mice; 30 mg/kg intraperitoneal)?
A: The value was 0%.

Q: And the Seizure level (Fmr1 knockout mice; 30 mg/kg intraperitoneal)?
A: Its Seizure level is 0.
